The target in experiment [1] is T1, Lysine-specific demethylase 4A (Homo sapiens, UniProt O75164).
T1 sequence (O75164 whole entry): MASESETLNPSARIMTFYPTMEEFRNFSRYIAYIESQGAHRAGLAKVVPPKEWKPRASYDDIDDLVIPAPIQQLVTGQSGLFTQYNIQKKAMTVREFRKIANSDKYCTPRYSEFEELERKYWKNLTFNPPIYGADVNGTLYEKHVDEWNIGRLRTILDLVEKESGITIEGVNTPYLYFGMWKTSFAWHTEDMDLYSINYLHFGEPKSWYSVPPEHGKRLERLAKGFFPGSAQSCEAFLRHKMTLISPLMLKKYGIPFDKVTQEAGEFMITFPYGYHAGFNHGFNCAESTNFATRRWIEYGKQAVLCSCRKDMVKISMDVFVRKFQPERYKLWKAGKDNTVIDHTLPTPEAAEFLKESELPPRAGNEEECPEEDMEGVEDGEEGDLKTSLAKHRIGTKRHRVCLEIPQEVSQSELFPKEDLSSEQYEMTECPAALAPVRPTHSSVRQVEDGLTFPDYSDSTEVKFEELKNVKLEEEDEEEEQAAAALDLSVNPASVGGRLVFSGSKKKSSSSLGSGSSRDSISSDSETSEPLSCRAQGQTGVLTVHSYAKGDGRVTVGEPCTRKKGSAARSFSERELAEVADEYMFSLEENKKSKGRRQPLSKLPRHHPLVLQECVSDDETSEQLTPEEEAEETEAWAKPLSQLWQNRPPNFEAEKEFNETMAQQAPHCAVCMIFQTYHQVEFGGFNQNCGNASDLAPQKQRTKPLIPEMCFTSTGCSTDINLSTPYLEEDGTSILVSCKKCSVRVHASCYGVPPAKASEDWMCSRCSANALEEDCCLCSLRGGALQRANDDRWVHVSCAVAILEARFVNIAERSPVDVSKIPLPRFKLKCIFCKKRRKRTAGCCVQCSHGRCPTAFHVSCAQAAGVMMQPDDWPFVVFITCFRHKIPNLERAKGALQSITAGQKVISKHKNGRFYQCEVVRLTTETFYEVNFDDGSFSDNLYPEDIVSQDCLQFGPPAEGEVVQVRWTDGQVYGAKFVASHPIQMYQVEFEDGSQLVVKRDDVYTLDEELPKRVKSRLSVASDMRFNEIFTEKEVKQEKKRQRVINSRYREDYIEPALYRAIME
As to the kind of experiment: Inhibition of human recombinant KDM4A assessed as decarboxylation of [1-14C] alphaKG at pH 7.4 using H3K9me3 as substrates incubated for 1 hr.

Experiment [2] deals with Lysine-specific demethylase 5B (Homo sapiens, UniProt Q9UGL1). The experiment in a line: Inhibition of human recombinant KDM5B assessed as decarboxylation of [1-14C] alphaKG by measuring 14CO2 release using H3K4me3 as substrate incubated for 1 hr.

A value given as a limit tells only on which side of the number the result lay.

We go through 11 compounds from ChEMBL document CHEMBL5390304, “Phenyl-quinoline-xxo-butyric Acid Inhibitors of Histone Lysine Demethylase for the Treatment of Cancer” (ACS Med Chem Lett, 2023).

Sequence of Lysine-specific demethylase 5B (Q9UGL1 whole entry): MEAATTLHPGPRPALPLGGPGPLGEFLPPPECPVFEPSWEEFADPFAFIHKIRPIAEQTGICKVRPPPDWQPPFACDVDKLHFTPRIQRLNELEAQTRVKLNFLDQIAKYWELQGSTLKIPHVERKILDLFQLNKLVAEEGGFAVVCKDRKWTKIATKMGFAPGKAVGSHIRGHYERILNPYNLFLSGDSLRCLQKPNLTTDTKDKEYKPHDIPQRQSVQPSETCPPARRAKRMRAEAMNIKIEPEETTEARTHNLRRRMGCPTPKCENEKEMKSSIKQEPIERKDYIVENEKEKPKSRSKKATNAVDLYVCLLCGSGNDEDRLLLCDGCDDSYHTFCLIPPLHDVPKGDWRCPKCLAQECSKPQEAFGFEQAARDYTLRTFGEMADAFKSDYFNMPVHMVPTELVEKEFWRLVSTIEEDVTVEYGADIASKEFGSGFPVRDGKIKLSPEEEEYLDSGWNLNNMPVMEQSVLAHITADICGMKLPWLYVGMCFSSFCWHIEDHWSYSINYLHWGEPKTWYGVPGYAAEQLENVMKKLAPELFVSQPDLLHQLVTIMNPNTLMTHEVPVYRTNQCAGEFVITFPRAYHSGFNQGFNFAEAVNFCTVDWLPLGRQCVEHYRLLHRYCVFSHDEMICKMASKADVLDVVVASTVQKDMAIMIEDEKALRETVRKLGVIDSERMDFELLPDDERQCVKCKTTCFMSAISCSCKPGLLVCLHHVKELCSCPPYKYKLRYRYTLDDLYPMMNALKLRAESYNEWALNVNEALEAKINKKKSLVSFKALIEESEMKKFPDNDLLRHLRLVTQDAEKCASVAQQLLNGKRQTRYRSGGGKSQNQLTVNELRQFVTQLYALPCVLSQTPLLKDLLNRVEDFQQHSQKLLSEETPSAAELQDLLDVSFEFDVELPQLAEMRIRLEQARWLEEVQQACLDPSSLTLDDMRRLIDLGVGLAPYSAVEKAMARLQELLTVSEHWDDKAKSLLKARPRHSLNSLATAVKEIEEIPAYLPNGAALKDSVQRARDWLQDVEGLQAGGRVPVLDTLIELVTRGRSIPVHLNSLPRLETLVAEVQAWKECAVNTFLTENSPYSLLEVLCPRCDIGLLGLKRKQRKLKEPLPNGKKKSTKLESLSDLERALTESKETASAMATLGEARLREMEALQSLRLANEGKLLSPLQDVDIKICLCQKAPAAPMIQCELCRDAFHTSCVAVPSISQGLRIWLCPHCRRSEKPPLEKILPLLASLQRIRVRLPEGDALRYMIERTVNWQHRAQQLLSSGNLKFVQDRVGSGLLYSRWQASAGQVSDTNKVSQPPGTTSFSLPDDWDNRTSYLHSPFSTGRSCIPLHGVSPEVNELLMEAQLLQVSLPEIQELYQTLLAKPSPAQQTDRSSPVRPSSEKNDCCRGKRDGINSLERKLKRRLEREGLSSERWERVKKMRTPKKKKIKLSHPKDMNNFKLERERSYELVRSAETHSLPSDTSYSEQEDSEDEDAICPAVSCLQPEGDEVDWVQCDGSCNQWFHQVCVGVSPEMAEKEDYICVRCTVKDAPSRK

Regarding `O=C(O)CCC(=O)c1nc2cc(-c3ccccc3)ccc2cc1O`, the IC50 in experiment [1] and in experiment [2] was above 40000 nM in each case.
Take `N#Cc1c(O)c(C(=O)CCC(=O)O)nc2cc(Sc3ccccc3)ccc12`: the half-inhibitory concentration (IC50) in experiment [1] is above 40000 nM; in experiment [2], 150 nM.
For the compound `N#Cc1c(O)c(C(=O)CCC(=O)O)nc2cc(-c3ccccc3)ccc12`, the half-inhibitory concentration (IC50) amounted to 3900 nM in experiment [1] and 90 nM in experiment [2].
For the compound `Cc1cccc(-c2ccc3c(C#N)c(O)c(C(=O)CCC(=O)O)nc3c2)c1`, the IC50 in experiment [1] worked out at 22000 nM; in experiment [2] it was 230 nM.
Take `COc1ccc(-c2ccc3c(C#N)c(O)c(C(=O)CCC(=O)O)nc3c2)cc1`: the values for the IC50 in experiment [1] and in experiment [2] were above 40000 nM and 220 nM, respectively.
For `N#Cc1c(O)c(C(=O)CCC(=O)O)nc2cc(Cc3ccccc3)ccc12`, in that order: above 40000 nM and 240 nM.
For `N#Cc1c(O)c(C(=O)CCC(=O)O)nc2ccc(-c3ccccc3)cc12`, in that order: above 40000 nM and 310 nM.
Regarding `Cc1cc(C)cc(-c2ccc3c(C#N)c(O)c(C(=O)CCC(=O)O)nc3c2)c1`, the IC50 in experiment [1] is above 40000 nM; in experiment [2] it was 370 nM.
On the same counts, the results for `N#Cc1c(O)c(C(=O)CCC(=O)O)nc2ccccc12` are 40000 nM and 130 nM.
On the same counts, the results for `N#Cc1c(O)c(C(=O)CCC(=O)O)nc2ccc(Cc3ccccc3)cc12` are above 40000 nM and 970 nM.
For `N#Cc1ccc(-c2cccc3c(C#N)c(O)c(C(=O)CCC(=O)O)nc23)cc1`, in that order: 7900 nM and 130 nM.
